Data from the NIST ThermoML archive (doi:10.1021/je020135f).
Values joined by “and” are separate entries in the source; they are usually repeats but may differ in a detail not shown here. Equal values may be shown once. Numbers after ± are expanded uncertainties.

How the values were obtained:
[1] = excess molar enthalpy (molar enthalpy of mixing); xn = mol fraction of the nth substance listed
[2] = 298.15 K; 101.33 kPa; Liquid; Vibrating tube method

CC1CCCCC1 [methylcyclohexane] + CO
excess molar enthalpy [kcal/mol], [1], 101.33 kPa, Liquid
Conditions	298.15 K	313.15 K
x1 = 0.0166	0.0185 ± 0.00086	0.02 ± 0.000908
x1 = 0.0343	–	0.0381 ± 0.00127
x1 = 0.0345	0.0357 ± 0.0012	–
x1 = 0.0534	–	0.0559 ± 0.00165
x1 = 0.0537	0.052 ± 0.00155	–
x1 = 0.0741	–	0.0718 ± 0.00201
x1 = 0.0743	0.066 ± 0.00186	–
x1 = 0.0964	–	0.0868 ± 0.00237
x1 = 0.0967	0.0793 ± 0.00217	–
x1 = 0.1206	–	0.101 ± 0.00263
x1 = 0.121	0.0911 ± 0.00239	–
x1 = 0.147	–	0.114 ± 0.00311
x1 = 0.1758	–	0.125 ± 0.00335
x1 = 0.2075	–	0.134 ± 0.00359
x1 = 0.2411	–	0.139 ± 0.00359
x1 = 0.2424	–	0.141 ± 0.00359
x1 = 0.7423	–	0.16 ± 0.00406
x1 = 0.8057	–	0.152 ± 0.00406
x1 = 0.8588	–	0.138 ± 0.00359
x1 = 0.859	0.101 ± 0.00263	–
x1 = 0.9055	–	0.123 ± 0.00311
x1 = 0.9056	0.0887 ± 0.00239	–
x1 = 0.941	–	0.108 ± 0.00287

[1]
Conditions	excess molar enthalpy [kcal/mol]
298.15 K, Liquid mixture 1, x1 = 0.1475	0.0996 ± 0.00263
298.15 K, Liquid mixture 1, x1 = 0.1764	0.103 ± 0.00263
298.15 K, Liquid mixture 1, x1 = 0.2082	0.104 ± 0.00263
298.15 K, Liquid mixture 1, x1 = 0.2411	0.105 ± 0.00287
298.15 K, Liquid mixture 1, x1 = 0.2432	0.105 ± 0.00287
298.15 K, Liquid mixture 1, x1 = 0.2819	0.105 ± 0.00287
298.15 K, Liquid mixture 1, x1 = 0.3251	0.106 ± 0.00287
298.15 K, Liquid mixture 1, x1 = 0.3736	0.106 ± 0.00287
298.15 K, Liquid mixture 1, x1 = 0.4283	0.107 ± 0.00287
298.15 K, Liquid mixture 1, x1 = 0.4907	0.108 ± 0.00287
298.15 K, Liquid mixture 1, x1 = 0.5623	0.108 ± 0.00287
298.15 K, Liquid mixture 1, x1 = 0.6453	0.109 ± 0.00287
298.15 K, Liquid mixture 1, x1 = 0.7429	0.111 ± 0.00287
298.15 K, Liquid mixture 1, x1 = 0.8061	0.109 ± 0.00287
313.15 K, Liquid mixture 1, x1 = 0.2812	0.145 ± 0.00382
313.15 K, Liquid mixture 1, x1 = 0.3244	0.147 ± 0.00382
313.15 K, Liquid mixture 1, x1 = 0.3728	0.15 ± 0.00382
313.15 K, Liquid mixture 1, x1 = 0.4275	0.154 ± 0.00406
313.15 K, Liquid mixture 1, x1 = 0.4898	0.157 ± 0.00406
313.15 K, Liquid mixture 1, x1 = 0.5615	0.16 ± 0.00406
313.15 K, Liquid mixture 1, x1 = 0.6446	0.164 ± 0.0043

CC1CCCCC1 [methylcyclohexane] + CN(C)C=O
excess molar enthalpy [kcal/mol], [1], 101.33 kPa, Liquid
Conditions	298.15 K	313.15 K
x1 = 0.031	0.0593 ± 0.00182	0.058 ± 0.00184
x1 = 0.0633	0.104 ± 0.00287	–
x1 = 0.0634	–	0.114 ± 0.00311
x1 = 0.0969	0.162 ± 0.0043	–
x1 = 0.097	–	0.166 ± 0.0043
x1 = 0.132	0.209 ± 0.00526	–
x1 = 0.1321	–	0.215 ± 0.0055
x1 = 0.1687	–	0.26 ± 0.00669
x1 = 0.2069	–	0.298 ± 0.00741
x1 = 0.9204	–	0.182 ± 0.00478
x1 = 0.924	0.17 ± 0.0043	–
x1 = 0.9274	0.163 ± 0.0043	–
x1 = 0.9305	0.159 ± 0.00406	–
x1 = 0.9383	0.147 ± 0.00382	0.154 ± 0.00406
x1 = 0.9552	–	0.118 ± 0.00335

[1]
Conditions	excess molar enthalpy
298.15 K, Liquid mixture 1, x1 = 0.1685	0.228 ± 0.00574 kcal/mol
298.15 K, Liquid mixture 1, x1 = 0.2068	0.234 ± 0.00598 kcal/mol
298.15 K, Liquid mixture 1, x1 = 0.2467	0.233 ± 0.00598 kcal/mol
298.15 K, Liquid mixture 1, x1 = 0.2893	0.233 ± 0.00598 kcal/mol
298.15 K, Liquid mixture 1, x1 = 0.3322	0.231 ± 0.00598 kcal/mol
298.15 K, Liquid mixture 1, x1 = 0.3781	0.227 ± 0.00574 kcal/mol
298.15 K, Liquid mixture 1, x1 = 0.3782	0.226 ± 0.00574 kcal/mol
298.15 K, Liquid mixture 1, x1 = 0.4264	0.224 ± 0.00574 kcal/mol
298.15 K, Liquid mixture 1, x1 = 0.4771	0.221 ± 0.00574 kcal/mol
298.15 K, Liquid mixture 1, x1 = 0.5304	0.218 ± 0.0055 kcal/mol
298.15 K, Liquid mixture 1, x1 = 0.5867	0.215 ± 0.0055 kcal/mol
298.15 K, Liquid mixture 1, x1 = 0.646	0.212 ± 0.00526 kcal/mol
298.15 K, Liquid mixture 1, x1 = 0.7087	0.208 ± 0.00526 kcal/mol
298.15 K, Liquid mixture 1, x1 = 0.7751	0.204 ± 0.00526 kcal/mol
298.15 K, Liquid mixture 1, x1 = 0.8455	0.199 ± 0.00502 kcal/mol
298.15 K, Liquid mixture 1, x1 = 0.9204	0.179 ± 0.00454 kcal/mol
313.15 K, Liquid mixture 1, x1 = 0.2469	0.315 ± 0.00789 kcal/mol
313.15 K, Liquid mixture 1, x1 = 0.2887	0.319 kcal/mol and 0.317 kcal/mol
313.15 K, Liquid mixture 1, x1 = 0.3325	0.317 ± 0.00789 kcal/mol
313.15 K, Liquid mixture 1, x1 = 0.3784	0.316 ± 0.00789 kcal/mol
313.15 K, Liquid mixture 1, x1 = 0.4267	0.314 ± 0.00789 kcal/mol
313.15 K, Liquid mixture 1, x1 = 0.4773	0.312 ± 0.00789 kcal/mol
313.15 K, Liquid mixture 1, x1 = 0.5307	0.308 ± 0.00765 kcal/mol
313.15 K, Liquid mixture 1, x1 = 0.5869	0.306 ± 0.00765 kcal/mol
313.15 K, Liquid mixture 1, x1 = 0.6462	0.304 ± 0.00765 kcal/mol
313.15 K, Liquid mixture 1, x1 = 0.7089	0.301 ± 0.00765 kcal/mol
313.15 K, Liquid mixture 1, x1 = 0.7753	0.297 ± 0.00741 kcal/mol
313.15 K, Liquid mixture 1, x1 = 0.8457	0.276 ± 0.00693 kcal/mol

CO [methanol]
Conditions	mass density [kg/m3]
[2]	786.55 ± 0.43

CC1CCCCC1 [methylcyclohexane]
Conditions	mass density
[2]	764.96 ± 0.42 kg/m3 and 764.97 ± 0.18 kg/m3

CN(C)C=O [dimethylformamide]
Conditions	mass density
[2]	943.81 ± 0.13 kg/m3 and 943.88 ± 0.1 kg/m3
